Measurements as given in patent US20140242093A1, “METHODS AND COMPOSITIONS FOR MODULATING THE INNATE IMMUNE RESPONSE AND/OR MYOGENESIS IN A MAMMALIAN SUBJECT” (FRED HUTCHINSON CANCER RESEARCH CENTER, priority 2011, published 2014).

Test system: control human primary myoblasts
Test: Expression microarray of primary myoblasts transduced with lentivirus carrying DUX4-fl, DUX4-s or GFP
Experimental: Primary human myoblasts were collected and cultured as previously described (Snider et al., 2010). Primary myoblasts were maintained at or below 70% confluency for proliferation. For differentiation, cells were allowed to reach 95-100% confluency in growth medium. Once confluency was reached, the cells were changed to differentiation medium (F10 media supplemented with 1% horse serum, 10 μg/mL insulin, and 10 μg/mL transferrin, penicillin/streptomycin) and maintained for 4 days. Human RD cells were grown in DMEM in 10% bovine calf serum (Hyclone) and penicillin/streptomycin. The primary myoblasts were transduced with lentivirus carrying DUX-fl, DUX4- or GFP (MOI=15).
Expression microarrays were performed on the transduced cells at 24 hours after transduction as follows. […] Samples were analyzed by Illumina Human Whole Genome microarrays. Probe intensities were corrected, normalized, and summarized by the Lumi package of Bioconductor (Du et al., 2008). Differentially expressed genes were identified by the LIMMA package of Bioconductor (Wettenhall and Smyth, 2004). Gene set enrichment analysis (GSEA) was performed using the Bioconductor GOstats package (Falcon and Gentleman, 2007).

DUX4-fl: full-length DUX4 protein (SEQ ID NO:110), expressed from lentiviral or pCS2 vectors or in vitro translated
fc of DENND5A (expression array) (Refseq NM_015213.2): −1.037
fc of FEM1B (expression array) (Refseq NM_015322.3): −0.5708
fc of PANX1 (expression array) (Refseq NM_015368.3): −0.114
fc of AASDHPPT (expression array) (Refseq NM_015423.2): −0.238
MTHFD1L fc (Refseq NM_015440.3): −1.173
C2orf32 fc (Refseq NM_015463.1): −1.1
PVRL3 expression fc (Refseq NM_015480.1): 2.223
NGDN expression fc (Refseq NM_015514.1): 2.058
fc of RRM2B (expression array) (Refseq NM_015713.3): −1.01
MBD2 expression fc (Refseq NM_015832.3): 1.818
fc of MBTPS2 (expression array) (Refseq NM_015884.1): −0.6539
ARS2 expression fc (Refseq NM_015908.4): 2.602
GSTK1 fc (Refseq NM_015917.1): −1.079
NOP58 expression fc (Refseq NM_015934.3): 1.887
CRLF3 expression fc (Refseq NM_015986.2): 1.912
fc of TTC15 (expression array) (Refseq NM_016030.5): −1.015
ISOC1 expression fc (Refseq NM_016048.1): 2.003
MED31 expression fc (Refseq NM_016060.2): 2.055
fc of TRPV2 (expression array) (Refseq NM_016113.3): −1.02
CERCAM fc (Refseq NM_016174.3): −1.121
DBR1 expression fc (Refseq NM_016216.2): 3.379
POLR3K expression fc (Refseq NM_016310.2): 1.95
HERC5 expression fc (Refseq NM_016323.2, cultured human skeletal muscle): −3.202
fc of CENPF (expression array) (Refseq NM_016343.3): −0.4122
CWC15 expression fc (Refseq NM_016403.3): 2.643
fc of TMEM9 (expression array) (Refseq NM_016456.2): −1.008
RAB6B expression fc (Refseq NM_016577.3): 3.17
SLC15A3 expression fc (Refseq NM_016582.1, cultured human skeletal muscle): −3.754
FKBP11 fc (Refseq NM_016594.1): −1.125
ARMCX1 fc (Refseq NM_016608.1): −1.116
C8orf55 fc (Refseq NM_016647.2): −1.082
HOXC13 fc (Refseq NM_017410.2): −1.107
USP18 expression fc (Refseq NM_017414.3, cultured human skeletal muscle): −2.497
PARP14 expression fc (Refseq NM_017554.1, cultured human skeletal muscle): −2.825
fc of SLC43A3 (expression array) (Refseq NM_017611.2): −1.026
NOTCH1 fc (Refseq NM_017617.3): −1.08
KIF21A expression fc (Refseq NM_017641.2): 1.837
fc of AHI1 (expression array) (Refseq NM_017651.3): −0.5927
SAMD9 expression fc (Refseq NM_017654.2, cultured human skeletal muscle): −2.863
FAM46C expression fc (Refseq NM_017709.3): 2.389
RETSAT expression fc (Refseq NM_017750.2, cultured human skeletal muscle): −1.929
LYAR expression fc (Refseq NM_017816.1): 1.977
ZSCAN2 expression fc (Refseq NM_017894.4): 2.151
HERC6 expression fc (Refseq NM_017912.3, cultured human skeletal muscle): −3.728
PID1 fc (Refseq NM_017933.3): −1.128
ZNHIT6 expression fc (Refseq NM_017953.2): 3.519
C14orf102 expression fc (Refseq NM_017970.2): 2.529
fc of WIPI1 (expression array) (Refseq NM_017983.4): −1.022
RNF31 fc (Refseq NM_017999.4): −1.08
FRMD4A fc (Refseq NM_018027.3): −1.164
FAM90A1 expression fc (Refseq NM_018088.3): 3.636
fc of RBM23 (expression array) (Refseq NM_018107.4): −1.022
PNPO fc (Refseq NM_018129.2): −1.13
SEC61A2 expression fc (Refseq NM_018144.2): 1.837
NADSYN1 fc (Refseq NM_018161.4): −1.086
TMEM140 expression fc (Refseq NM_018295.2, cultured human skeletal muscle): −2.946
BRIX1 expression fc (Refseq NM_018321.3): 1.886
DRAM1 fc (Refseq NM_018370.2): −1.087
LSG1 expression fc (Refseq NM_018385.1): 1.994
TBC1D2 fc (Refseq NM_018421.2): −1.075
RRN3 expression fc (Refseq NM_018427.3): 2.068
ZNF302 fc (Refseq NM_018443.2): −1.164
fc of GLT8D1 (expression array) (Refseq NM_018446.2): −1.021
BEX1 fc (Refseq NM_018476.3): −1.097
SLC35E3 fc (Refseq NM_018656.2): −1.132
DEFB103B expression fc (Refseq NM_018661.3): 2.499
fc of SULF2 (expression array) (Refseq NM_018837.2): −1.048
PDE7B fc (Refseq NM_018945.3): −1.116
NANS expression fc (Refseq NM_018946.2): 1.872
POLR1B expression fc (Refseq NM_019014.3): 1.904
CCNJ expression fc (Refseq NM_019084.2): 2.695
fc of HOXA5 (expression array) (Refseq NM_019102.2): −1.005
PNO1 expression fc (Refseq NM_020143.2): 2.151
KTELC1 fc (Refseq NM_020231.3): −1.073
C1orf63 expression fc (Refseq NM_020317.3): 2.19
ZMIZ1 fc (Refseq NM_020338.2): −1.165
TRIM49 expression fc (Refseq NM_020358.2): 6.551
LYRM1 fc (Refseq NM_020424.2): −1.126
SLC44A2 fc (Refseq NM_020428.2): −1.158
PCBP3 fc (Refseq NM_020528.1): −1.122
NFKBIA expression fc (Refseq NM_020529.1, cultured human skeletal muscle): −3.004
fc of RCN3 (expression array) (Refseq NM_020650.2): −1.062
PELI1 expression fc (Refseq NM_020651.2): 2.886
fc of FAM62B (expression array) (Refseq NM_020728.1): −0.7938
HECW2 fc (Refseq NM_020760.1): −1.167
ZNF319 fc (Refseq NM_020807.1): −1.119
OSBPL8 expression fc (Refseq NM_020841.4): 1.95
USP29 expression fc (Refseq NM_020903.2): 2.597
fc of RNF213 (expression array) (Refseq NM_020914.3): −1.024
fc of FAM160B1 (expression array) (Refseq NM_020940.3): −1.051
fc of IGDCC4 (expression array) (Refseq NM_020962.1): −1.054
RFPL1 expression fc (Refseq NM_021026.2): 6.264
IFITM3 expression fc (Refseq NM_021034.2, cultured human skeletal muscle): −1.949
NEFH expression fc (Refseq NM_021076.2): 1.936
fc of SLC8A1 (expression array) (Refseq NM_021097.2): −0.4596
PSAT1 fc (Refseq NM_021154.3): −1.076
RAB40C fc (Refseq NM_021168.2): −1.168
fc of SLC30A1 (expression array) (Refseq NM_021194.2): −0.3462
CTDSP1 fc (Refseq NM_021198.1): −1.122
ARHGAP22 fc (Refseq NM_021226.2): −1.084
fc of NTN4 (expression array) (Refseq NM_021229.3): −1.022
PELI2 expression fc (Refseq NM_021255.2): 2.782
PLEKHA2 fc (Refseq NM_021623.1): −1.077
AVPI1 expression fc (Refseq NM_021732.1): 2.022
fc of FAM3A (expression array) (Refseq NM_021806.1): −1.022
APOBEC3G expression fc (Refseq NM_021822.1, cultured human skeletal muscle): −2.012
fc of C14orf93 (expression array) (Refseq NM_021944.1): −1.063
HSPA2 expression fc (Refseq NM_021979.3): 3.67
CXCL16 fc (Refseq NM_022059.1): −1.09
NOD2 fc (Refseq NM_022162.1): −1.135
IFIH1 expression fc (Refseq NM_022168.2, cultured human skeletal muscle): −3.705
HS1BP3 fc (Refseq NM_022460.3): −1.078
C14orf173 fc (Refseq NM_022489.2): −1.167
FEZ1 fc (Refseq NM_022549.2): −1.073
HIPK2 fc (Refseq NM_022740.2): −1.173
fc of MOSC1 (expression array) (Refseq NM_022746.2): −1.034
PARP12 expression fc (Refseq NM_022750.2, cultured human skeletal muscle): −3.165
CRTC3 fc (Refseq NM_022769.3): −1.138
FAM129B fc (Refseq NM_022833.2): −1.126
IFI6 expression fc (Refseq NM_022872.2, cultured human skeletal muscle): −4.24
FGFR3 expression fc (Refseq NM_022965.1): 3.112
PRAMEF1 expression fc (Refseq NM_023013.1): 8.072
PRAMEF2 expression fc (Refseq NM_023014.1): 6.439
C8orf33 expression fc (Refseq NM_023080.1): 2.251
GRAMD3 fc (Refseq NM_023927.1): −1.115
NEUROG2 expression fc (Refseq NM_024019.2): 3.857
NUP37 fc (Refseq NM_024057.2): −1.075
PRRG4 expression fc (Refseq NM_024081.4): 2.369
TRIM48 expression fc (Refseq NM_024114.2): 7.88
DHX58 expression fc (Refseq NM_024119.2, cultured human skeletal muscle): −2.836
PRKAG2 fc (Refseq NM_024429.1): −1.099
fc of FAM65A (expression array) (Refseq NM_024519.2): −1.053
fc of ZC3HAV1 (expression array) (Refseq NM_024625.3): −0.8233
YRDC expression fc (Refseq NM_024640.3): 2.601
NPEPL1 fc (Refseq NM_024663.3): −1.113
SNIP1 expression fc (Refseq NM_024700.2): 2.104
fc of FAM57A (expression array) (Refseq NM_024792.1): −1.045
C13orf34 expression fc (Refseq NM_024808.2): 2.492
fc of NUDT18 (expression array) (Refseq NM_024815.3): −1.034
fc of ZNF672 (expression array) (Refseq NM_024836.1): −1.034
C14orf159 expression fc (Refseq NM_024952.5, cultured human skeletal muscle): −2.07
NRSN2 fc (Refseq NM_024958.1): −1.091
SLC24A6 fc (Refseq NM_024959.2): −1.099
CSRNP3 expression fc (Refseq NM_024969.2): 2.496
fc of ULBP1 (expression array) (Refseq NM_025218.2): −1.025
C6orf148 expression fc (Refseq NM_030568.2): 6.759
KLHL15 expression fc (Refseq NM_030624.1): 3.373
fc of ZBP1 (expression array) (Refseq NM_030776.1): −0.3281
SLC2A10 fc (Refseq NM_030777.3): −1.119
SYNC1 fc (Refseq NM_030786.1): −1.127
PDRG1 expression fc (Refseq NM_030815.2): 1.783
UNC93B1 expression fc (Refseq NM_030930.2, cultured human skeletal muscle): −1.961
PPP1R14C expression fc (Refseq NM_030949.2): 3.049
TRIM56 fc (Refseq NM_030961.1): −1.14
fc of RNF146 (expression array) (Refseq NM_030963.2): −1.02
ADPGK expression fc (Refseq NM_031284.3): 2.233
C11orf68 fc (Refseq NM_031450.2): −1.142
FAM107B expression fc (Refseq NM_031453.2): 2.529
PARP9 expression fc (Refseq NM_031458.1, cultured human skeletal muscle): −2.098
IFI27L2 fc (Refseq NM_032036.2): −1.137
SFRS2B expression fc (Refseq NM_032102.2): 4.215
